# “Also recorded” adds a separate entry of the source.
# Legend:
# [1] = tested on: human glioblastoma U87 cells; experiment: Growth and FUCCI assays in U87 cells (cell counts, cell cycle, recovery test); assay type: cell-based; conditions: for FUCCI cell cycle proportion: U87, day 6
# Procedure: U87 (ATCC) cells were cultured under the same conditions as the NG108-15 cells minus the HAT supplement and used at passage 7-10 for experiments.
# [2] = tested on: NG108-15 cells; experiment: Antibody staining, BrdU and senescence assays in NG108-15 cells; assay type: cell-based, mouse/rat; conditions: NG108-15, 6 days
# Procedure: Antibody Staining, BrdU and Senescence Assays. NG108-15 cells were plated on PEI and Matrigel coated plates at 15,000 or 30,000 cells/mL, U87 cells at 10,000 cells/mL and grown in imaging media for 6 days with drug treatment. Fresh media was added every 2 days. On day 6, cells were fixed with 4% formaldehyde in PBS for 30 minutes for all antibody staining, except for BrdU which was fixed for 15 minutes, and for the senescence assay which was fixed for 20 min using the Senescence Beta-Galactosidase Staining Kit (9860, CellSignaling) and thereafter stained according to manufacturer's protocol. After fixing, cells were washed twice with PBS, and were permeabilized in PBS with 0.3% Triton-X for 15 min then washed again twice with PBS. The cells for the BrdU assay were additionally treated with 1N HCl for 10 min on ice, followed by a treatment with 2N HCl for 50 min at room temp. Cells were then blocked with standard blocking buffer comprised of TBS containing 10% goat serum, 0.1% BSA, and with 0.05% Tween 20 or without detergent for antibodies against phosphorylated proteins or monoclonal antibodies except for Anti-YAP and Anti-BrdU staining, which were done according to manufacturer's protocol. Primary antibodies were added at the following concentrations: 1:250 anti-S100 beta (GTX129573, Genetex), 1:500 anti-GFAP (AB5804, EMD-Millipore), 1:300 anti-SOX10 (ab155279, Abcam), 1:100 MAP2 (4542, CellSignaling), 1:400 anti-cleaved caspase 3 (9661, CellSignaling), 1:300 anti-Cx43 (STJ2411, St. John's Labratory), 1:800 anti-p27^Kip1 (3698, CellSignaling), 1:150 anti-BrdU (5292, CellSignaling), 1:125 anti-LC3-II (2775, CellSignaling), 8 μg/mL anti-04 (MAB1326, R&D Systems), 1:1000 anti-TH (RPCA-TH, Encor), 1:4000 anti-NSE (RPCA-NSE, Encor), 1:4000 anti-NFM (RPCA-NF-M, Encor), 0.5 μg/mL anti-TujI (801202, Biolegend), 1:400 anti-NF-KB p65 (8242, CellSignaling), 1:125 anti-phospho CREB (05-807, EMD-Millipore), 1:250 anti-vimentin (ab92547, Abcam), 1:125 anti-YAP (14074, CellSignaling). Antibodies were diluted in their respective blocking buffer and incubated overnight at 4° C. The next day, cells were washed with TBS-T or TBS for 3× for 5 min each and secondary antibody was added as follows: 1:1000 donkey anti-mouse 647 (A-31571, Thermo-Fisher) or 1:1000 donkey anti-rabbit 647 (A-31573, Thermo-Fisher). Each were diluted in blocking buffer along with 2.5 μg/mL Hoechst 33342 and incubated for 1 hour at room temperature. Cells were then washed again with TBS-T or TBS for 3× for 5 min each and covered with Gelvatol. Cells were imaged with an EVOS M7000 system, with at least 50% of each well in a 96 well plate imaged and analyzed using a CellProfiler pipeline for measuring integrated intensity, mean intensity, or nuclear to cytoplasmic ratio of mean intensities.
# [3] = tested on: NG108-15 cells; experiment: Growth and FUCCI assays in NG108-15 cells (cell counts, cell cycle, recovery test); conditions: for cell proliferation compared to control (words): NG108-15, 6 days of treatment
# Procedure: Cells were plated in 96 well plates at a low confluence and drugs were added fresh every other day for 6 days. Some studies removed the drug at 6 days and added media with no drug for an additional 4 days to test for proliferation. Images of the cells were taken every day and a cell profiler pipeline was used to count the cells and determine the ratio of cells in each part of the cell cycle. […] Cell Culture. […] Cells were disassociated with Accutase and passaged when 70% confluent and maintained at 37° C. with 5% C02. Media was changed every two days. […] All drug screens including controls were done using 0.02% DMSO in the high serum Fluorobrite DMEM.
# Growth and FUCCI assays. Both cell lines were plated at 5,000 cells per mL into black-walled flat-bottom 96-well plates coated with 1/50 dilution of Matrigel. Images of cells were taken on Day 0 and every subsequent day for 10 days using a Zeiss Axio1 fitted with an on-stage incubator and kept at 37° C. with 5% C02. A 5× objective was used along with filters for YFP, RFP, and CFP and careful calibration of each plate was done to ensure that the same fields of view were imaged each day. Drugs were added after the initial images were taken and then changed every two days until day 6. For recovery experiments, after imaging on day 6, all drugs were removed, and cells were put into imaging media without any added drugs. This media was changed every two days until day 10. Analysis of growth and snap shots of FUCCI reporters over the 6 days or 10 days was done using a CellProfiler [72]pipeline designed by the Broad. The fractional difference in cell number was calculated by dividing the total number of cells each day by the total number of cells from day 0. The ratio of cells in each cell cycle stage every day was determined by counting all the nuclei of one color and dividing it by the total number of nuclei. Blind quality control was done on all the images to make sure that any fibers or image artifacts were not incorrectly counted by the program.
# [4] = human, in vivo; cited from earlier work
# [5] = tested on: NG108-15 cells; experiment: Automated patch-clamp electrophysiology, resting membrane potential; assay type: cell-based, mouse/rat; conditions: NG108-15, immediately after application
# Procedure: Electrophysiology. SyncroPatch 384PE platform (Nanion Technologies®) was used to perform the automated patch-clamp experiments. This system provides giga-ohm resistance seals during simultaneous recording in the 384-well plate format. Cells were harvested 48-72 h after seeding 1-2×10^6 cells in T175 culture flasks (Falcon), then cells were rinsed with PBS (5 mL) and treated with 3 mL Accutase ([…] technologies) for 5 min at 37° C., re-suspended in 10 mL of serum-free media and pelleted at 1000 rpm for 3 min at RT. […] The cells were kept until the moment of the experiment in a temperature controlled dedicated reservoir at 10° C. and shaken at 200 rpm as described. The experiments were performed within one hour after the harvesting process. The assays were carried in single-hole chips with resistances between 4-5 MΩ after priming the chip with the following solutions (in mM), physiological extracellular solution (pECS) 10 HEPES, 140 NaCl, 5 Glucose, 4 KCl, 2 CaCl2), 1 MgCl2, 295-305 mOsm pH 7.4 (NaOH). Internal recording solution (in mM) 20 EGTA, 50 KCl, 10 NaCl, 60 KF, 10 HEPES at pH 7.2, and 285 mOsm. 15 μL of the cell suspension (50% v/v pECS/Medium no serum) was added to each well to a final density of 50-80K cells/mL. Cell capture was promoted by holding a negative pressure of −100 mbar for 20 s. After successive hyperpolarization steps from −30 mV to −100 mV enhanced the capture the seal followed by the transient addition of a high Ca2+ extracellular solution (80 mM NaCl, 3 mM KCl, 35 mM CaCl2), 10 mM MgCl2, 10 mM HEPES at pH 7.4 and 298 mOsm. High Ca2+ solution is washed out by successive external exchanges replacing half of the volume of the well each time with the external recording solution. All recording solutions were prepared with ultrapure MilliQ water (18 MD-cm). After the formation of the Giga-seal, a 250 mbar pressure was applied to break the membrane patch. Once in whole-cell configuration, different voltage protocols were applied to dissect different conductances in NG108-15 cells. Signals were recorded in the current-clamp mode “I=0” (passive conditions) where no current was injected, to monitor the membrane potential. The membrane potentials were recorded for seven sweeps of 1 sec, with an inter-sweep time of 10 s. The average membrane potentials of the 7 sweeps were reported.
# Electrophysiology of NG108-15 Cells Show Changes in Resting Membrane Potential Induced by Treatment. […] Untreated cells were patched, baseline measurements were taken and then the drugs were added and the changes in the cell Vmem were recorded.
# [6] = cited from earlier work
structure (smiles),measurement,setting,value
"CO[C@H]1C[C@@H]2CC[C@@H](C)[C@@](O)(O2)C(=O)C(=O)N2CCCC[C@H]2C(=O)O[C@H]([C@H](C)C[C@@H]2CC[C@@H](O)[C@H](OC)C2)CC(=O)[C@H](C)/C=C(\C)[C@@H](O)[C@@H](OC)C(=O)[C@H](C)C[C@H](C)/C=C/C=C/C=C/1C [Rapamycin, rapamycin]",FUCCI cell cycle proportion,[1],increase in the G1 proportion
same,LC3-II stain,[2],significant increase
same,cell proliferation compared to control (words),[3],very significant decrease in proliferation
same,FUCCI cell cycle proportion,"[3]; NG108-15, day 6",increase in cells arrested at G1; also recorded: increased the proportion of cells in G1
same,blood-brain barrier penetrance,[4],cross the blood brain barrier effectively
same,change in resting membrane potential compared to control,[5],significantly hyperpolarized
"Nc1nnc(-c2cccc(Cl)c2Cl)c(N)n1 [Lamotrigine, lamotrigine]",change in resting membrane potential compared to control,[5],significantly hyperpolarized
"Cn1nnc2c(C(N)=O)ncn2c1=O [TMZ, temozolomide]",cell proliferation compared to control (words),"[1]; U87, 6 days",significantly effective
same,percent reduction in cells compared to control,"[1]; U87, 6 days of treatment",43%
same,FUCCI cell cycle proportion,[1],did not show a large change in proportion of cells
same,recovery of proliferation after treatment removed,"[1]; U87, drugs removed at day 6, followed to day 10",slight increase in proliferation after treatment was removed
same,cell proliferation compared to control (words),[3],not significantly effective at reducing proliferation
same,cell proliferation compared to control (words),[3]; listed as temozolomide,not effective
same,change in resting membrane potential compared to control,[5],significantly hyperpolarized
"CCOC(=O)Nc1ccc(NCc2ccc(F)cc2)cc1N [Retigabine, retigabine]",plasma protein binding affinity,[6],about 80%
same,BrdU incorporation,[2],significant decrease
same,cleaved caspase 3 staining,[2],decrease the cleaved caspase 3 positive cells significantly
same,change in resting membrane potential compared to control,[5],significantly hyperpolarized; also recorded: hyperpolarized NG108-15 cells only slightly
